# Reference: patent US6737383B1, “Herbicidal oxadiazolidines” (priority 1999, dated 2004)
# Tests used:
# [1] = tested on: bedstraw; test: Test B pre/postemergence bedstraw; type: in vivo, Galium aparine
# How it was run: (§1)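 Test chemicals in a non-phytotoxic solvent mixture with surfactant were sprayed preemergence onto planted seeds and postemergence onto plants 2 to 18 cm tall (1- to 4-leaf stage). After twelve to sixteen days in a greenhouse, injury was visually rated against untreated controls from 0 (no effect) to 10 (complete control).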
# [2] = tested on: blackgrass; test: Test B pre/postemergence blackgrass; type: in vivo, Alopecurus myosuroides
# How it was run: as §1
# [3] = tested on: surinam grass; test: Test B pre/postemergence surinam grass; type: in vivo, Brachiaria decumbens
# How it was run: as §1
# [4] = tested on: cocklebur; test: Test B pre/postemergence cocklebur; type: in vivo, Xanthium strumarium; settings: for Cocklebur plant response rating: scale of 0 to 10 where 0 is no effect and 10 is complete control
# How it was run: as §1
# [5] = tested on: corn; test: Test B pre/postemergence corn; type: in vivo, Zea mays; settings: for Corn plant response rating: scale of 0 to 10 where 0 is no effect and 10 is complete control
# How it was run: as §1
# [6] = tested on: crabgrass; test: Test B pre/postemergence crabgrass; type: in vivo, Digitaria sanguinalis; settings: for Crabgrass plant response rating: scale of 0 to 10 where 0 is no effect and 10 is complete control
# How it was run: as §1
# [7] = tested on: giant foxtail; test: Test B pre/postemergence giant foxtail; type: in vivo, Setaria faberii; settings: for Giant foxtail plant response rating: scale of 0 to 10 where 0 is no effect and 10 is complete control
# How it was run: as §1
# [8] = tested on: morningglory; test: Test B pre/postemergence morningglory; type: in vivo, Ipomoea hederacea; settings: for Morningglory plant response rating: scale of 0 to 10 where 0 is no effect and 10 is complete control
# How it was run: as §1
# [9] = tested on: pigweed; test: Test B pre/postemergence pigweed; type: in vivo, Amaranthus retroflexus; settings: for Redroot pigweed plant response rating: scale of 0 to 10 where 0 is no effect and 10 is complete control
# How it was run: as §1
# [10] = tested on: rape; test: Test B pre/postemergence rape; type: in vivo, Brassica napus; settings: for Rape plant response rating: scale of 0 to 10 where 0 is no effect and 10 is complete control
# How it was run: as §1
# [11] = tested on: soybean; test: Test B pre/postemergence soybean; type: in vivo, Glycine max; settings: for Soybean plant response rating: scale of 0 to 10 where 0 is no effect and 10 is complete control
# How it was run: as §1
# [12] = tested on: sugar beet; test: Test B pre/postemergence sugar beet; type: in vivo, Beta vulgaris; settings: for Sugarbeets plant response rating: scale of 0 to 10 where 0 is no effect and 10 is complete control
# How it was run: as §1
# [13] = tested on: velvetleaf; test: Test B pre/postemergence velvetleaf; type: in vivo, Abutilon theophrasti; settings: for Velvetleaf plant response rating: scale of 0 to 10 where 0 is no effect and 10 is complete control
# How it was run: as §1
# [14] = tested on: wheat; test: Test B pre/postemergence wheat; type: in vivo, Triticum aestivum; settings: for Wheat plant response rating: scale of 0 to 10 where 0 is no effect and 10 is complete control
# How it was run: as §1
# [15] = tested on: wild oat; test: Test B pre/postemergence wild oat; type: in vivo, Avena fatua; settings: for Wild oats plant response rating: scale of 0 to 10 where 0 is no effect and 10 is complete control
# How it was run: as §1
# [16] = tested on: purple nutsedge; test: Test B pre/postemergence purple nutsedge; type: in vivo, Cyperus rotundus; settings: for Nutsedge plant response rating: scale of 0 to 10 where 0 is no effect and 10 is complete control
# How it was run: as §1
# [17] = tested on: rice; test: Test B flood test rice; type: in vivo, Oryza sativa
# How it was run: (§2)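 Plants were grown to the 2-leaf stage before treatment with test chemical, then held in a greenhouse for twelve to sixteen days. Injury was visually rated against untreated controls on a 0–10 scale, where 0 is no effect and 10 is complete control.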
# [18] = tested on: smallflower flatsedge; test: Test B flood test smallflower flatsedge; type: in vivo, Cyperus difformis
# How it was run: as §2
# [19] = tested on: duck salad; test: Test B flood test duck salad; type: in vivo, Heteranthera limosa
# How it was run: as §2
# [20] = tested on: bamyardgrass; test: Test B flood test barnyardgrass; type: in vivo, Echinochloa crus-galli
# How it was run: as §2
# [21] = Postemergence, Rate 125 g/ha, scale 0 to 10, 0 is no effect, 10 is complete control
# [22] = Preemergence, Rate 62 g/ha, scale 0 to 10 (0 no effect, 10 complete control)
# [23] = Preemergence, Rate 250 g/ha, scale of 0 to 10 where 0 is no effect and 10 is complete control
# [24] = Preemergence, Rate 500 g/ha, scale of 0 to 10 where 0 is no effect and 10 is complete control
# [25] = Rate 62 g/ha, Postemergence, scale of 0 to 10 where 0 is no effect and 10 is complete control
# [26] = Rate 250 g/ha, Postemergence, scale of 0 to 10 where 0 is no effect and 10 is complete control
# [27] = Rate 500 g/ha, Postemergence, scale 0 to 10, 0 no effect, 10 complete control
# [28] = Postemergence (flood test), Rate 125 g/ha, scale 0 to 10, 0 is no effect, 10 is complete control
# [29] = Rate 62 g/ha, Postemergence (flood test species), scale of 0 to 10 where 0 is no effect and 10 is complete control
# [30] = Rate 500 g/ha, listed under Postemergence (flood test species), scale 0 to 10, 0 no effect, 10 complete control
smiles,measurement,setting,value
CC(C)C(C)n1c(=O)on(C(=O)N(c2ccccc2)C(C)C)c1=O (centres unmarked) [Compound 355],"Plant response rating, Bedstraw",[1]; [21],0
same,"Plant response rating, Bedstraw",[1]; [22],0
same,Bedstraw plant response rating,[1]; [23],0
same,Bedstraw plant response rating,[1]; [24],9
same,Bedstraw plant response rating,[1]; [25],0
same,"Plant response rating, Bedstraw",[1]; [26],0
same,"Plant response rating, Bedstraw",[1]; [27],0
same,"Plant response rating, Blackgrass",[2]; [21],3
same,"Plant response rating, Blackgrass",[2]; [22],2
same,Blackgrass plant response rating (0 to 10 scale),"[2]; Preemergence, Rate 125 g/ha",4
same,Blackgrass plant response rating,[2]; [23],5
same,Blackgrass plant response rating,[2]; [24],10
same,Blackgrass plant response rating,[2]; [25],3
same,"Plant response rating, Blackgrass",[2]; [26],6
same,"Plant response rating, Blackgrass",[2]; [27],6
same,"Plant response rating, B. signalgrass",[3]; [21],0
same,"Plant response rating, B. signalgrass",[3]; [22],0
same,"B. signalgrass plant response rating (0 to 10 scale, 0 is no effect, 10 is complete control)","[3]; Preemergence, Rate 125 g/ha",2
same,B. signalgrass plant response rating,[3]; [23],3
same,B. signalgrass plant response rating,[3]; [24],6
same,B. signalgrass plant response rating,[3]; [25],0
same,"Plant response rating, B. signalgrass",[3]; [26],0
same,"Plant response rating, B. signalgrass",[3]; [27],2
same,"Plant response rating, Cocklebur",[4]; [21],0
same,"Plant response rating, Cocklebur",[4]; [22],0
same,Cocklebur plant response rating (0 to 10 scale),"[4]; Preemergence, Rate 125 g/ha",0
same,Cocklebur plant response rating,"[4]; Preemergence, Rate 250 g/ha",0
same,Cocklebur plant response rating,"[4]; Rate 62 g/ha, Postemergence",0
same,"Plant response rating, Cocklebur",[4]; [27],4
same,"Plant response rating, Corn",[5]; [21],0
same,"Plant response rating, Corn",[5]; [22],0
same,Corn plant response rating (0 to 10 scale),"[5]; Preemergence, Rate 125 g/ha",0
same,Corn plant response rating,"[5]; Preemergence, Rate 250 g/ha",3
same,Corn plant response rating,"[5]; Preemergence, Rate 500 g/ha",4
same,Corn plant response rating,"[5]; Rate 62 g/ha, Postemergence",0
same,"Plant response rating, Corn",[5]; [27],0
same,"Plant response rating, Crabgrass",[6]; [21],0
same,"Plant response rating, Crabgrass",[6]; [22],4
same,Crabgrass plant response rating (0 to 10 scale),"[6]; Preemergence, Rate 125 g/ha",10
same,Crabgrass plant response rating,"[6]; Preemergence, Rate 250 g/ha",10
same,Crabgrass plant response rating,"[6]; Preemergence, Rate 500 g/ha",10
same,Crabgrass plant response rating,"[6]; Rate 62 g/ha, Postemergence",0
same,"Plant response rating, Crabgrass",[6]; [27],2
same,"Plant response rating, Giant foxtail",[7]; [21],2
same,"Plant response rating, Giant foxtail",[7]; [22],10
same,Giant foxtail plant response rating (0 to 10 scale),"[7]; Preemergence, Rate 125 g/ha",10
same,Giant foxtail plant response rating,"[7]; Preemergence, Rate 250 g/ha",10
same,Giant foxtail plant response rating,"[7]; Preemergence, Rate 500 g/ha",10
same,Giant foxtail plant response rating,"[7]; Rate 62 g/ha, Postemergence",2
same,"Plant response rating, Giant foxtail",[7]; [27],8
same,"Plant response rating, Morningglory",[8]; [21],5
same,"Plant response rating, Morningglory",[8]; [22],0
same,Morningglory plant response rating (0 to 10 scale),"[8]; Preemergence, Rate 125 g/ha",0
same,Morningglory plant response rating,"[8]; Preemergence, Rate 250 g/ha",0
same,Morningglory plant response rating,"[8]; Preemergence, Rate 500 g/ha",2
same,Morningglory plant response rating,"[8]; Rate 62 g/ha, Postemergence",2
same,"Plant response rating, Morningglory",[8]; [27],8
same,"Plant response rating, Redroot pigweed",[9]; [21],0
same,Redroot pigweed plant response rating (0 to 10 scale),"[9]; Preemergence, Rate 125 g/ha",7
same,Redroot pigweed plant response rating,"[9]; Preemergence, Rate 250 g/ha",10
same,Redroot pigweed plant response rating,"[9]; Preemergence, Rate 500 g/ha",10
same,Redroot pigweed plant response rating,"[9]; Rate 62 g/ha, Postemergence",0
same,"Plant response rating, Redroot pigweed",[9]; [27],3
same,"Plant response rating, Rape",[10]; [21],0
same,"Plant response rating, Rape",[10]; [22],0
same,Rape plant response rating (0 to 10 scale),"[10]; Preemergence, Rate 125 g/ha",0
same,Rape plant response rating,"[10]; Preemergence, Rate 250 g/ha",0
same,Rape plant response rating,"[10]; Preemergence, Rate 500 g/ha",5
same,Rape plant response rating,"[10]; Rate 62 g/ha, Postemergence",0
same,"Plant response rating, Rape",[10]; [27],0
same,"Plant response rating, Soybean",[11]; [21],2
same,"Plant response rating, Soybean",[11]; [22],0
same,Soybean plant response rating (0 to 10 scale),"[11]; Preemergence, Rate 125 g/ha",0
same,Soybean plant response rating,"[11]; Preemergence, Rate 250 g/ha",0
same,Soybean plant response rating,"[11]; Preemergence, Rate 500 g/ha",0
same,Soybean plant response rating,"[11]; Rate 62 g/ha, Postemergence",1
same,"Plant response rating, Soybean",[11]; [27],3
same,"Plant response rating, Sugarbeets",[12]; [21],0
same,"Plant response rating, Sugarbeets",[12]; [22],0
same,Sugarbeets plant response rating (0 to 10 scale),"[12]; Preemergence, Rate 125 g/ha",0
same,Sugarbeets plant response rating,"[12]; Preemergence, Rate 250 g/ha",2
same,Sugarbeets plant response rating,"[12]; Preemergence, Rate 500 g/ha",3
same,Sugarbeets plant response rating,"[12]; Rate 62 g/ha, Postemergence",0
same,"Plant response rating, Sugarbeets",[12]; [27],0
same,"Plant response rating, Velvetleaf",[13]; [21],0
same,"Plant response rating, Velvetleaf",[13]; [22],0
same,Velvetleaf plant response rating (0 to 10 scale),"[13]; Preemergence, Rate 125 g/ha",2
same,Velvetleaf plant response rating,"[13]; Preemergence, Rate 250 g/ha",3
same,Velvetleaf plant response rating,"[13]; Preemergence, Rate 500 g/ha",5
same,Velvetleaf plant response rating,"[13]; Rate 62 g/ha, Postemergence",0
same,"Plant response rating, Velvetleaf",[13]; [27],2
same,"Plant response rating, Wheat",[14]; [21],2
same,"Plant response rating, Wheat",[14]; [22],0
same,Wheat plant response rating (0 to 10 scale),"[14]; Preemergence, Rate 125 g/ha",0
same,Wheat plant response rating,"[14]; Preemergence, Rate 250 g/ha",0
same,Wheat plant response rating,"[14]; Preemergence, Rate 500 g/ha",2
same,Wheat plant response rating,"[14]; Rate 62 g/ha, Postemergence",0
same,"Plant response rating, Wheat",[14]; [27],3
same,"Plant response rating, Wild oats",[15]; [21],3
same,"Plant response rating, Wild oats",[15]; [22],0
same,Wild oats plant response rating (0 to 10 scale),"[15]; Preemergence, Rate 125 g/ha",0
same,Wild oats plant response rating,"[15]; Preemergence, Rate 250 g/ha",0
same,Wild oats plant response rating,"[15]; Preemergence, Rate 500 g/ha",9
same,Wild oats plant response rating,"[15]; Rate 62 g/ha, Postemergence",0
same,"Plant response rating, Wild oats",[15]; [27],5
same,"Plant response rating, Nutsedge",[16]; [21],0
same,"Plant response rating, Nutsedge",[16]; [22],0
same,Nutsedge plant response rating (0 to 10 scale),"[16]; Preemergence, Rate 125 g/ha",0
same,Nutsedge plant response rating,"[16]; Preemergence, Rate 250 g/ha",0
same,Nutsedge plant response rating,"[16]; Preemergence, Rate 500 g/ha",0
same,Nutsedge plant response rating,"[16]; Rate 62 g/ha, Postemergence",0
same,"Plant response rating, Nutsedge",[16]; [27],0
same,"Plant response rating, Rice",[17]; [28],0
same,Rice plant response rating,[17]; [29],0
same,"Plant response rating, Rice",[17]; [30],0
same,"Plant response rating, S. Flatsedge",[18]; [28],2
same,S. Flatsedge plant response rating,[18]; [29],0
same,"Plant response rating, S. Flatsedge",[18]; [30],8
same,"Plant response rating, Ducksalad",[19]; [28],0
same,Ducksalad plant response rating,[19]; [29],0
same,"Plant response rating, Ducksalad",[19]; [30],0
same,"Plant response rating, Barnyardgrass",[20]; [28],8
same,Barnyardgrass plant response rating,[20]; [29],1
same,"Plant response rating, Barnyardgrass","[20]; Rate 250 g/ha, Postemergence (flood test species), scale of 0 to 10 where 0 is no effect and 10 is complete control",8
same,"Plant response rating, Barnyardgrass",[20]; [30],8
